Assay results: ChEMBL document CHEMBL1949505, “Total synthesis and structure-activity relationships of new echinocandin-like antifungal cyclolipohexapeptides” (2012)
Converted amounts (≈) assume the structure as drawn. Bridge positions count the residues as written; N and C are the ends. Square brackets hold non-standard residues; d marks the D form. Peptide text beside a SMILES is read from it. * marks the point of attachment. pTerphenylCO(4''-OnC5H11) = CCCCCOc1ccc(-c2ccc(-c3ccc(C(=O)*)cc3)cc2)cc1; 2Naphthoyl(6-heptyloxy) = CCCCCCCOc1ccc2cc(C(=O)*)ccc2c1; X1 = CCCOc1ccc(-c2ccc(-c3ccc(C(=O)*)cc3)cc2)cc1; Pro(4S-NH2) = N[C@@H]1CN[C@H](C(=O)O)C1; hTyr = N[C@@H](CCc1ccc(O)cc1)C(=O)O; Orn = NCCC[C@H](N)C(=O)O

Assays:
Type in all cases: functional
[1] = test system: Candida parapsilosis; assay: Antifungal activity against Candida parapsilosis after 24 hrs by serial dilution method; conditions: Lodderomyces parapsilosis
[2] = test system: Aspergillus fumigatus; assay: Antifungal activity against Aspergillus fumigatus after 7 days by serial dilution method; conditions: 168 h
[3] = test system: Candida albicans; assay: Antifungal activity against Candida albicans after 24 hrs by serial dilution method
[4] = test system: Trichophyton rubrum; assay: Antifungal activity against Trichophyton rubrum after 7 days by serial dilution method; conditions: 168 h
[5] = test system: Candida albicans; assay: Ratio of caspofungin MIC to compound MIC for Candida albicans by serial dilution method
[6] = test system: Candida tropicalis; assay: Antifungal activity against Candida tropicalis after 24 hrs by serial dilution method
[7] = test system: Pichia kudriavzevii; assay: Antifungal activity against Candida krusei after 24 hrs by serial dilution method
[8] = test system: Cryptococcus neoformans; assay: Antifungal activity against Cryptococcus neoformans after 72 hrs by serial dilution method

MIC80 [1]	MIC80 [2]	MIC80 [3]	MIC80 [4]	MIC80 [6]	MIC80 [7]	MIC80 [8]	SMILES	Ratio [5]
4 µg/mL	2 µg/mL	0.125 µg/mL	64 µg/mL	8 µg/mL	0.5 µg/mL	32 µg/mL	CCCOc1ccc(-c2ccc(-c3ccc(C(=O)N[C@H]4CCCNC(=O)[C@@H]5C[C@H](N)CN5C(=O)[C@H](CCCN)NC(=O)[C@H](CCc5ccc(O)cc5)NC(=O)[C@@H]5CCCN5C(=O)[C@H]([C@@H](C)O)NC4=O)cc3)cc2)cc1.Cc1ccc(S(=O)(=O)O)cc1 (X1-[Orn]TP[hTyr][Orn][Pro(4S-NH2)]; lactam 1-C)	4
4 µg/mL	1 µg/mL	0.125 µg/mL	32 µg/mL	16 µg/mL	0.5 µg/mL	64 µg/mL	CCCCCCCOc1ccc2cc(C(=O)N[C@H]3CCCNC(=O)[C@@H]4C[C@H](N)CN4C(=O)[C@H](CCCCN)NC(=O)[C@H](CCc4ccc(O)cc4)NC(=O)[C@@H]4CCCN4C(=O)[C@H]([C@@H](C)O)NC3=O)ccc2c1.Cc1ccc(S(=O)(=O)O)cc1 ({2Naphthoyl(6-heptyloxy)}-[Orn]TP[hTyr]K[Pro(4S-NH2)]; lactam 1-C)	4
2 µg/mL	1 µg/mL	0.5 µg/mL	32 µg/mL	8 µg/mL	1 µg/mL	16 µg/mL	CCCCCOc1ccc(-c2ccc(-c3ccc(C(=O)N[C@H]4CCCNC(=O)[C@@H]5C[C@H](N)CN5C(=O)[C@H](CCCCN)NC(=O)[C@H](CCc5ccc(O)cc5)NC(=O)[C@@H]5CCCN5C(=O)[C@H]([C@@H](C)O)NC4=O)cc3)cc2)cc1.Cc1ccc(S(=O)(=O)O)cc1 ({pTerphenylCO(4''-OnC5H11)}-[Orn]TP[hTyr]K[Pro(4S-NH2)]; lactam 1-C)	–
8 µg/mL	1 µg/mL	0.25 µg/mL	64 µg/mL	4 µg/mL	0.5 µg/mL	64 µg/mL	CCCCCOc1ccc(-c2ccc(-c3ccc(C(=O)N[C@H]4CCCNC(=O)[C@@H]5C[C@H](N)CN5C(=O)[C@H](CCCN)NC(=O)[C@H](CCc5ccc(O)cc5)NC(=O)[C@@H]5CCCN5C(=O)[C@H]([C@@H](C)O)NC4=O)cc3)cc2)cc1.Cc1ccc(S(=O)(=O)O)cc1 ({pTerphenylCO(4''-OnC5H11)}-[Orn]TP[hTyr][Orn][Pro(4S-NH2)]; lactam 1-C)	–
4 µg/mL	1 µg/mL	1 µg/mL	32 µg/mL	16 µg/mL	2 µg/mL	32 µg/mL	CCCCCOc1ccc(-c2ccc(-c3ccc(C(=O)N[C@H]4CCCNC(=O)[C@@H]5C[C@H](N)CN5C(=O)[C@H](CCCCN)NC(=O)[C@H](CCc5ccc(O)cc5)NC(=O)[C@@H]5CCCN5C(=O)[C@H](C(C)C)NC4=O)cc3)cc2)cc1.Cc1ccc(S(=O)(=O)O)cc1 ({pTerphenylCO(4''-OnC5H11)}-[Orn]VP[hTyr]K[Pro(4S-NH2)]; lactam 1-C)	–
4 µg/mL	0.5 µg/mL	1 µg/mL	32 µg/mL	8 µg/mL	2 µg/mL	32 µg/mL	CCCCCOc1ccc(-c2ccc(-c3ccc(C(=O)N[C@H]4CCCNC(=O)[C@@H]5C[C@H](N)CN5C(=O)[C@H](CCCN)NC(=O)[C@H](CCc5ccc(O)cc5)NC(=O)[C@@H]5CCCN5C(=O)[C@H](C(C)C)NC4=O)cc3)cc2)cc1.Cc1ccc(S(=O)(=O)O)cc1 ({pTerphenylCO(4''-OnC5H11)}-[Orn]VP[hTyr][Orn][Pro(4S-NH2)]; lactam 1-C)	–

SMILES	MIC80 [1]	MIC80 [2]	MIC80 [3]	MIC80 [4]	MIC80 [6]	MIC80 [7]	MIC80 [8]	Ratio [5]
CC[C@H](C)C[C@H](C)CCCCCCCCC(=O)N[C@H]1C[C@@H](O)[C@@H](NCCN)NC(=O)[C@@H]2[C@@H](O)CCN2C(=O)[C@H]([C@H](O)CCN)NC(=O)[C@H]([C@H](O)[C@@H](O)c2ccc(O)cc2)NC(=O)[C@@H]2C[C@@H](O)CN2C(=O)[C@H]([C@@H](C)O)NC1=O [CASPOFUNGIN]	1 µg/mL (≈ 0.915 µM)	1 µg/mL (≈ 0.915 µM)	0.5 µg/mL (≈ 0.457 µM)	16 µg/mL (≈ 14.6 µM)	4 µg/mL (≈ 3.66 µM)	0.25 µg/mL (≈ 0.229 µM)	16 µg/mL (≈ 14.6 µM)	–
